Test results published in patent publication US20240216281A1, “MANUFACTURING METHOD OF MEDICATION” (YUNG SHIN PHARM. IND. CO., LTD., priority 2022, published 2024).

Assay: particle size distribution (PSD) of crystals within the medication
Assay type: physicochemical
Conditions: first embodiment: dry powder filling technology

Row | 10% of the crystals having a particle size (D10) of less than | 50% of the crystals having a particle size (D50) of less than | 90% of the crystals having a particle size (D90) of less than (unit not given) | 90% of the crystals having a particle size (D90) of less than | SMILES
1 | less than 4.444 μm | less than 11.189 μm | less than 30.504 |  | CC1(C)O[C@@H]2C[C@H]3[C@@H]4CCC5=CC(=O)C=C[C@]5(C)[C@@]4(F)[C@@H](O)C[C@]3(C)[C@]2(C(=O)CO)O1 [triamcinolone acetonide]
2 | less than 0.648 μm | less than 14.061 μm |  | less than 215.136 μm | OCc1ccc(-c2nn(Cc3ccccc3)c3ccccc23)o1 [YC-1 compound]
